pIC50, pKd: −log10 of the molar value. Entries after “also recorded” stand apart in the source; their conditions may differ.
Experiments:
human tumor xenografts = test: In vivo antitumor effect (human tumor xenografts in nude mice)
[1] = system: BT-549 breast carcinoma cells; test: XTT dye binding cytotoxicity assay, BT-549; format: cell-based; settings: Homo sapiens, BT-549, 72 h
Experimental: (§1) All cell lines described herein were obtained from the ATCC and maintained in media formulations as recommended by the supplier. The cell lines were tested for mycoplasma contamination prior to incubation at 37° C. in 5% carbon dioxide. Normal human dermal fibroblasts, peripheral blood lymphoblasts and mammary epithelial cells were obtained from Clonogenic Cor., San Diego, Calif. and were maintained under the above incubation conditions in special media provided by the supplier.
(§2) Antiproliferative activities of the onium salts were determined using the XTT dye binding assay. Cells were harvested with trypsin/EDTA (Irvine Scientific), washed, resuspended in the appropriate medium, and counted in a hemocytometer using Trypan Blue to determine viability. Then 10^4 cells/well were added to 96 well microtiter plates and incubated for 24 hours before addition of drug at concentrations in the range of 10^-4 to 10^-13 molar by direct addition from DMSO solutions. After 72 hours, XTT binding dye was added and incubation was continued for 4 hours. The inhibition of cell proliferation was quantified using a Molecular Devices Microplate Reader. The absorbance of XTT was measured at […]. The concentration of drug which inhibited growth of cells by 50% was calculated from duplicated determinations.

[2] = system: HMEC mammary epithelial cells; test: XTT dye binding cytotoxicity assay, HMEC; format: cell-based; settings: Homo sapiens, 72 h
Experimental: as §1, §2

[3] = cited from earlier work
[4] = system: HT-29 colon carcinoma cells; test: XTT dye binding cytotoxicity assay, HT-29; format: cell-based; settings: Homo sapiens, HT-29, 72 h
Experimental: as §1, §2

[5] = Plasma stability and prodrug reversion (ethyl acetate extraction, HPLC)
[6] = system: Molt-4 T-cell leukemia cells; test: XTT dye binding cytotoxicity assay, Molt-4; format: cell-based; settings: Homo sapiens, MOLT-4, 72 h
Experimental: as §1, §2

[7] = Comparative toxicities (lethality) in mice
[8] = system: SK-N-SH neuroblastoma cells; test: XTT dye binding cytotoxicity assay, SK-N-SH; format: cell-based; settings: Homo sapiens, 72 h
Experimental: as §1, §2

[9] = system: OVCAR-3 ovarian carcinoma cells; test: XTT dye binding cytotoxicity assay, OVCAR-3; format: cell-based; settings: Homo sapiens, OVCAR-3, 72 h
Experimental: as §1, §2

[10] = system: A-549 lung carcinoma cells; test: XTT dye binding cytotoxicity assay, A-549; format: cell-based; settings: Homo sapiens, A549, 72 h
Experimental: as §1, §2

[11] = system: PC-3 prostate carcinoma cells; test: XTT dye binding cytotoxicity assay, PC-3; format: cell-based; settings: Homo sapiens, 72 h
Experimental: as §1, §2

[12] = system: Capan 1 pancreas cancer cells; test: XTT dye binding cytotoxicity assay, Capan 1; format: cell-based; settings: Homo sapiens, CAPAN-1, 72 h
Experimental: as §1, §2

SK-Mel-28 melanoma cells = test: XTT dye binding cytotoxicity assay, SK-Mel-28; format: cell-based; settings: Homo sapiens, SK-MEL-28, 72 h
Experimental: as §1, §2

[13] = cited from earlier work; remark: listed apart in the source
L-1210 leukemia cells = test: XTT dye binding cytotoxicity assay, L-1210; format: cell-based, mouse; settings: Mus musculus, L1210, 72 h
Experimental: as §1, §2

U-2511 CNS cancer cells = test: XTT dye binding cytotoxicity assay, U-2511; format: cell-based; settings: Homo sapiens, 72 h
Experimental: as §1, §2

[14] = In vivo elimination in BALB/C mice; settings: 24 hours after injection
Experimental: C-2'-MPA-Taxol (1 mM in 0.9% saline solution, 400 μL) was injected along with tritiated taxol at 32000 cpm into normal BALB/C mice (4 mice each) housed in metabolic cages and the urine and feces were measured periodically in a scintillation counter using Achillea scintillation fluid.
The antitumor activity of the onium salts of taxol were assessed in nude mice bearing tumors of human A-549 lung adenocarcinomas, Ovcar-3 ovarian carcinoma, and PC-3 prostate carcinoma cells. […] FIG. 5 illustrates antiproliferation results for 2'-MPA-3-thiophene-taxol (4) and 2' MPA taxol (2) for the Ovcar-3 human tumor xenograft. […] FIG. 6, summarizes the results for a PC-3, prostate tumor model study. Taxol was compared with both the 2'- and 7-substituted oxonium salts. […] Tritiated taxol and 2' MPA-taxol were used in drug elimination experiments in normal BALB/C mice. In both groups of mice of four animals each, only 4-5% of the administered radioactivity was measured in the combined urine and feces 24 hours after injection.

[15] = cited from earlier work; remark: listed apart in the source
[16] = system: HL-60 promyelocytic leukemia cells; test: XTT dye binding cytotoxicity assay, HL-60; format: cell-based; settings: Homo sapiens, HL-60, 72 h
Experimental: as §1, §2

[17] = system: SIHA squamous carcinoma cells; test: XTT dye binding cytotoxicity assay, SIHA; format: cell-based; settings: Homo sapiens, SiHa, 72 h
Experimental: as §1, §2

intact Molt-4 cells = test: Competition binding of tritiated compounds to intact Molt-4 cells; design: species or system human; settings: calculated from slopes of linear portions of curves in FIG. 3; read-out: binding constant
Experimental: The competition by nonradioactive taxol or c-2'-MPA-taxol for the binding of 1×10^-9 M tritiated compounds by intact Molt-4 cells is illustrated in FIG. 3. Tritiated taxol (Moravek Corp.) was treated with 2-fluoropyridiunium tosylate according to the method of Nicolaou et al. to yield the C-2'-MPT-^3 H-taxol. (Angew. Chem., Int. Ed. 1994: vol. 34, pp. 1583-1587.) Six well plates were incubated with 10^6 Molt-4 cells in 50 mM phosphate buffered saline (PBS) or PRPMI media to which 10^-9 M of the radiolabeled taxol or taxol onium salt was added together with increasing concentrations of nonradiolabeled compound. After 30 minutes, the cells were centrifuged, washed with PBS and 1% SDS was added. […] Alternatively, the cells may be lysed by sonication.

[18] = system: PC-3 prostate carcinoma tumor xenograft; test: PC-3 prostate tumor xenograft in nude mice
Experimental: Athymic nude mice were purchased from Harlan-Sprague-Dawley. The animals were housed in microisolated cases under positive air pressure and all manipulations and drug treatments were performed in a laminar flow cabinet. Tumor cells were grown under the above tissue culture conditions. Cell suspensions in RPMI medium were injected S./C. Treatment was started one day after inoculation by i.p. injection of 400 μl drug solutions. Tumors were measured 3 times weekly in two dimensions, using calipers and tumor volume as calculated using the formula (V=w^2 ×L×(3.142).
The tumor model was generated from an ATTC PC-3 prostate carcinoma cell line that was maintained under standard cell proliferation conditions, viz. 37° C., 5% carbon dioxide in sterile air. Each cohort was comprised of eight randomly chosen female athymic nude mice, for a total population size of twenty four. Hemocytometer counted cells, suspended in Hanks mediun (Gibco, Grand Island N.Y.) were implanted S.C. (10^6 cells in 0.4 mL per mouse). Solid tumor growth was measured on each third day. Equimolar amounts of the test compounds (1.0 mM, 400 μL) were injected i.p. on days 1, 3, 5, 7, 9, and 11 using the following media:
(.smallcircle.): Control, 5% dextrose in 5× distilled water (5 DW)
(Δ): Taxol (18.0 mg/kg of animal weight or approximately 1.260 mg/m^2) suspended in Cremaphor/D5W
Inferences about efficacy were drawn by ANOVA followed by protected t-test. […] Data shown as mean value with standard error.

[19] = system: RPMI-7666 blood lymphoblasts; test: XTT dye binding cytotoxicity assay, RPMI-7666; format: cell-based; settings: Homo sapiens, 72 h
Experimental: as §1, §2

[20] = system: CHO Chinese hamster ovary cells; test: XTT dye binding cytotoxicity assay, CHO; format: cell-based; settings: Cricetulus griseus, 72 h
Experimental: as §1, §2

tubulin = test: Tubulin polymerization-depolymerization (microtubule assembly-disassembly) assay; format: biochemical, calf; settings: CaCl2; 10^-6 M drug; 37° C.; in words; listed as taxol
[21] = system: M-24 metastatic melanoma cells; test: XTT dye binding cytotoxicity assay, M-24; format: cell-based; settings: Homo sapiens, M24, 72 h
Experimental: as §1, §2

[22] = system: 786-0 renal cell carcinoma cells; test: XTT dye binding cytotoxicity assay, 786-0; format: cell-based; settings: Homo sapiens, 786-0, 72 h
Experimental: as §1, §2

NHDF dermal fibroblast = test: XTT dye binding cytotoxicity assay, NHDF; format: cell-based; settings: Homo sapiens, 72 h
Experimental: as §1, §2

[23] = system: UCLA-P3 lung carcinoma cells; test: XTT dye binding cytotoxicity assay, UCLA-P3; format: cell-based; settings: Homo sapiens, UCLA P-3, 72 h
Experimental: as §1, §2

[24] = Toxicity and survival in vivo (tumor bearing nude mice)

**Q.** Which results are given for `CC(=O)O[C@H]1C(=O)[C@@]2(C)[C@H]([C@H](OC(=O)c3ccccc3)[C@]3(O)C[C@H](OC(=O)[C@H](O)[C@@H](NC(=O)c4ccccc4)c4ccccc4)C(C)=C1C3(C)C)[C@]1(OC(C)=O)CO[C@@H]1C[C@@H]2O` [Compound 1, reference compound]?
**A.** in vivo antitumor efficacy in words (human tumor xenografts): when taxol was administered at somewhat lower doses, its efficacy was significantly diminished; pIC50 [1]: 10.18; pIC50 [2]: 7.21; dose limiting toxicity ([3]; 300 mg/m^2 /day): peripheral neuropathy; tolerated taxol dose ([3]; 24 hour i.v. infusion every 3 weeks, with G-CSF): 250 mg/m^2; pIC50 [4]: 8.94; Plasma Stability t1/2 ([5]; human plasma, 37° C., Table II): stable; recovery ([5]; human, plasma): 95%; pIC50 [6]: 10.02; 50% lethality, equivalent dose ([7]; mice, four times on alternating days, approximately equivalent dose): 1,120-1,260 mg/m^2; LD50 ([7]; mouse, in vivo): 16 to 18 mg/kg; pIC50 [8]: 8.62; pIC50 [9]: 9.13; pIC50 [10]: 8.24; pIC50 [11]: 9.00; pIC50 [12]: 9.01; pIC50 (SK-Mel-28 melanoma cells): 6.28; dose-limiting toxicity ([13]; pediatric patients, 24 hour i.v. infusion): neurotoxicity; dose at which dose-limiting toxicity occurred ([13]; pediatric patients, neurotoxicity): 420 mg/m^2; recommended phase II dose ([13]; pediatric population): 350 mg/m^2 /d; pIC50 (L-1210 leukemia cells): 8.49; pIC50 (U-2511 CNS cancer cells): 7.81; administered radioactivity in the combined urine and feces [14]: 4-5%; solubility in aqueous media [15]: low solubility; pIC50 [16]: 10.21; pIC50 [17]: 8.05; pKd (intact Molt-4 cells): 8.30; antitumor activity, PC-3 ([18]; 1.0 mM, 400 μL i.p., established tumors): regression of established tumors; mice surviving treatment, PC-3 ([18]; in vivo): 3 out of 8 mice; pIC50 [19]: 6.23; pIC50 [20]: 6.21; inhibition of calcium chloride induced depolymerization of microtubules (tubulin): essentially complete inhibition of depolymerization; also recorded: suppressed by taxol; pIC50 [21]: 10.74; pIC50 [22]: 7.97; pIC50 (NHDF dermal fibroblast): 6.12; pIC50 [23]: 9.18; Toxicity ([24]; Table II, in vivo): high; % survival ([24]; at end of experiments): 0-20%; in vivo tolerance / toxicity in words ([24]; nude mice): both visual toxicity and animal weight losses were observed
